This is an account of results in patent US12552825B2 (Zikani Therapeutics, Inc., priority 2019, dated 2026).

The structures appear in SMILES notation. In brackets after ≈: the same amount, converted by molar mass. Bounds are passed on as bounds.

Common to all, as to type: cell-based
The test system of assay [1] is S. aureus MP-12. The assay can be described thus: microbe, parasite or virus in culture. Conditions: Staphylococcus aureus, MP12, read-out: MIC S. aureus MP-12.
Assay [2] deals with E. coli MP-4. The assay can be described thus: MIC determination by CLSI broth dilution, E. coli MP-4. The conditions noted are these: strain MP-4; for MIC: Escherichia coli, MP4, CLSI broth dilution. Background: Dilution methods test growth across graded concentrations, often in twofold steps.
The subject of assay [3] is K. pneumoniae MP-546. The assay can be described thus: MIC determination by CLSI broth dilution, K. pneumoniae MP-546. The conditions noted are these: strain MP-546; for MIC: Klebsiella pneumoniae, MP546, CLSI broth dilution.
Assay [4] concerns K. pneumoniae MP-648. The assay can be described thus: MIC determination by CLSI broth dilution, K. pneumoniae MP-648. Conditions: strain MP-648; for MIC: Klebsiella pneumoniae, MP648, CLSI broth dilution.
For assay [5], the system named is P. aeruginosa MP-3. The assay can be described thus: MIC determination by CLSI broth dilution, P. aeruginosa MP-3. Conditions: for MIC: Pseudomonas aeruginosa, MP3, strain MP-3.
Assay [6] concerns A. baumannii MP-15. In words: MIC determination by CLSI broth dilution, A. baumannii MP-15. The conditions noted are these: for MIC: Acinetobacter baumannii, MP15, strain MP-15, read-out: MIC A. baumanii MP-15.

For the compound `CCCCCCCN1CCC(C[C@@H]2COC(=O)[C@@](C)(CCC)C(=O)[C@H](C)[C@@H](O[C@@H]3O[C@H](C)C[C@H](N(C)C)[C@H]3O)[C@](C)(OC)C[C@@H](C)CN2C)CC1` [Compound 174], the MIC was 4 to 32 µg/mL (≈ 5.52 to 44.2 µM) in assay [1]; less than 4 µg/mL in assay [2]; 4 to 32 µg/mL (≈ 5.52 to 44.2 µM) in assay [3]; 4 to 32 µg/mL (≈ 5.52 to 44.2 µM) in assay [4]; greater than 32 µg/mL in assay [5]; greater than 32 µg/mL in assay [6].

With `CO[C@]1(C)C[C@@H](C)CN(C)[C@@H](CCCN2CCC[C@H]2C)COC(=O)C(C)(C)C(=O)[C@H](C)[C@H]1O[C@@H]1O[C@H](C)C[C@H](N(C)C)[C@H]1O` [Compound 122, (3S,6R,8R,9R,10R)-9-(((2S,3R,4S,6R)-4-(dimethylamino)-3-hydroxy-6-methyltetrahydro-2H-pyran-2-yl)oxy)-8-methoxy-4,6,8,10,12,12-hexamethyl-3-(3-((R)-2-methylpyrrolidin-1-yl)propyl)-1-oxa-4-azacyclotridecane-11,13-dione], the MIC in assay [1] was 4 to 32 µg/mL (≈ 6.39 to 51.1 µM); in assay [2] it was less than 4 µg/mL; in assay [3] it was less than 4 µg/mL; in assay [4] it was less than 4 µg/mL; in assay [5] it was greater than 32 µg/mL; in assay [6] it was greater than 32 µg/mL.

For `CO[C@]1(C)C[C@@H](C)CN(C)[C@@H](CCCN(C)C2CC2)COC(=O)C(C)(C)C(=O)[C@H](C)[C@H]1O[C@@H]1O[C@H](C)C[C@H](N(C)C)[C@H]1O` [Compound 90, (3S,6R,8R,9R,10R)-3-(3-(cyclopropyl(methyl)amino)propyl)-9-(((2S,3R,4S,6R)-4-(dimethylamino)-3-hydroxy-6-methyltetrahydro-2H-pyran-2-yl)oxy)-8-methoxy-4,6,8,10,12,12-hexamethyl-1-oxa-4-azacyclotridecane-11,13-dione], the MIC was 4 to 32 µg/mL (≈ 6.54 to 52.3 µM) in assay [1]; less than 4 µg/mL in assay [2]; less than 4 µg/mL in assay [3]; 4 to 32 µg/mL (≈ 6.54 to 52.3 µM) in assay [4]; greater than 32 µg/mL in assay [5]; greater than 32 µg/mL in assay [6].

As to `CCCN1C[C@H](C)C[C@@](C)(OC)[C@H](O[C@@H]2O[C@H](C)C[C@H](N(C)C)[C@H]2O)[C@@H](C)C(=O)C(C)(C)C(=O)OC[C@H]1CCCN1CCCC1` [Compound 144, (3R,6R,8R,9R,10R)-9-(((2S,3R,4S,6R)-4-(dimethylamino)-3-hydroxy-6-methyltetrahydro-2H-pyran-2-yl)oxy)-8-methoxy-6,8,10,12,12-pentamethyl-4-propyl-3-(3-(pyrrolidin-1-yl)propyl)-1-oxa-4-azacyclotridecane-11,13-dione], the MIC in assay [1] was less than 4 µg/mL; in assay [2], less than 4 µg/mL; in assay [3], less than 4 µg/mL; in assay [4], less than 4 µg/mL; in assay [5], less than 4 µg/mL; in assay [6], greater than 32 µg/mL.

On to `CCCN1C[C@H](C)C[C@@](C)(OC)[C@H](O[C@@H]2O[C@H](C)C[C@H](N(C)C)[C@H]2O)[C@@H](C)C(=O)C(C)(C)C(=O)OC[C@H]1CCCN1CCc2ncncc2C1` [Compound 182, (3R,6R,8R,9R,10R)-3-(3-(7,8-dihydropyrido[4,3-d]pyrimidin-6 (5H)-yl)propyl)-9-(((2S,3R,4S,6R)-4-(dimethylamino)-3-hydroxy-6-methyltetrahydro-2H-pyran-2-yl)oxy)-8-methoxy-6,8,10,12,12-pentamethyl-4-propyl-1-oxa-4-azacyclotridecane-11,13-dione], for which the MIC is 4 to 32 µg/mL (≈ 5.68 to 45.5 µM) in assay [1]; less than 4 µg/mL in assay [2]; 4 to 32 µg/mL (≈ 5.68 to 45.5 µM) in assay [3]; 4 to 32 µg/mL (≈ 5.68 to 45.5 µM) in assay [4]; greater than 32 µg/mL in assay [5]; greater than 32 µg/mL in assay [6].

For `CO[C@]1(C)C[C@@H](C)CN(C)[C@@H](CCCN2CCC2)COC(=O)C(C)(C)C(=O)[C@H](C)[C@H]1O[C@@H]1O[C@H](C)C[C@H](N(C)C)[C@H]1O` [Compound 160, (3S,6R,8R,9R,10R)-3-(3-(azetidin-1-yl)propyl)-9-(((2S,3R,4S,6R)-4-(dimethylamino)-3-hydroxy-6-methyltetrahydro-2H-pyran-2-yl)oxy)-8-methoxy-4,6,8,10,12,12-hexamethyl-1-oxa-4-azacyclotridecane-11,13-dione], the MIC in assay [1] is 4 to 32 µg/mL (≈ 6.69 to 53.5 µM); in assay [2], less than 4 µg/mL; in assay [3] it was less than 4 µg/mL; in assay [4], 4 to 32 µg/mL (≈ 6.69 to 53.5 µM); in assay [5] it was greater than 32 µg/mL; in assay [6], greater than 32 µg/mL.

`CCN1C[C@H](C)C[C@@](C)(OC)[C@H](O[C@@H]2O[C@H](C)C[C@H](N(C)C)[C@H]2O)[C@@H](C)C(=O)C(C)(C)C(=O)OC[C@H]1[C@@H](CCN1CCCC1)OC` [Compound 147]: the MIC in assay [1] is 4 to 32 µg/mL (≈ 6.1 to 48.8 µM); in assay [2] it was less than 4 µg/mL; in assay [3], 4 to 32 µg/mL (≈ 6.1 to 48.8 µM); in assay [4], 4 to 32 µg/mL (≈ 6.1 to 48.8 µM); in assay [5], greater than 32 µg/mL; in assay [6], greater than 32 µg/mL.

With `CCCCCCCN1CCC(C[C@@H]2COC(=O)[C@@](C)(Cc3ccccc3)C(=O)[C@H](C)[C@@H](O[C@@H]3O[C@H](C)C[C@H](N(C)C)[C@H]3O)[C@](C)(OC)C[C@@H](C)CN2C)CC1` [Compound 171], the MIC is 4 to 32 µg/mL (≈ 5.18 to 41.4 µM) in assay [1]; less than 4 µg/mL in assay [2]; 4 to 32 µg/mL (≈ 5.18 to 41.4 µM) in assay [3]; 4 to 32 µg/mL (≈ 5.18 to 41.4 µM) in assay [4]; greater than 32 µg/mL in assay [5]; greater than 32 µg/mL in assay [6].

Take `CCCN1CCC(=C[C@@H]2COC(=O)C(C)(C)C(=O)[C@H](C)[C@@H](O[C@@H]3O[C@H](C)C[C@H](N(C)C)[C@H]3O)[C@](C)(OC)C[C@@H](C)CN2C)CC1` [Compound 149]: the MIC is less than 4 µg/mL in assay [1]; less than 4 µg/mL in assay [2]; less than 4 µg/mL in assay [3]; less than 4 µg/mL in assay [4]; greater than 32 µg/mL in assay [5]; greater than 32 µg/mL in assay [6].

For the compound `CCCCCCCN1CCC(C[C@@H]2COC(=O)[C@@](C)(COC)C(=O)[C@H](C)[C@@H](O[C@@H]3O[C@H](C)C[C@H](N(C)C)[C@H]3O)[C@](C)(OC)C[C@@H](C)CN2C)CC1` [Compound 176], the MIC in assay [1] is greater than 32 µg/mL; in assay [2] it was less than 4 µg/mL; in assay [3], less than 4 µg/mL; in assay [4], 4 to 32 µg/mL (≈ 5.51 to 44.1 µM); in assay [5], greater than 32 µg/mL; in assay [6], greater than 32 µg/mL.

For `CCCN1C[C@H](C)C[C@@](C)(OC)[C@H](O[C@@H]2O[C@H](C)C[C@H](N(C)C)[C@H]2O)[C@@H](C)C(=O)C(C)(C)C(=O)OC[C@@H]1CCCN1CCCC1` [Compound 127, (3S,6R,8R,9R,10R)-9-(((2S,3R,4S,6R)-4-(dimethylamino)-3-hydroxy-6-methyltetrahydro-2H-pyran-2-yl)oxy)-8-methoxy-6,8,10,12,12-pentamethyl-4-propyl-3-(3-(pyrrolidin-1-yl)propyl)-1-oxa-4-azacyclotridecane-11,13-dione], the MIC is 4 to 32 µg/mL (≈ 6.25 to 50 µM) in assay [1]; less than 4 µg/mL in assay [2]; less than 4 µg/mL in assay [3]; less than 4 µg/mL in assay [4]; greater than 32 µg/mL in assay [5]; greater than 32 µg/mL in assay [6].

As to `CCN1C[C@H](C)C[C@@](C)(OC)[C@H](O[C@@H]2O[C@H](C)C[C@H](N(C)C)[C@H]2O)[C@@H](C)C(=O)C(C)(C)C(=O)OC[C@H]1CCCN1CCCC1` [Compound 113, (3R,6R,8R,9R,10R)-9-(((2S,3R,4S,6R)-4-(dimethylamino)-3-hydroxy-6-methyltetrahydro-2H-pyran-2-yl)oxy)-4-ethyl-8-methoxy-6,8,10,12,12-pentamethyl-3-(3-(pyrrolidin-1-yl)propyl)-1-oxa-4-azacyclotridecane-11,13-dione], the MIC in assay [1] was less than 4 µg/mL; in assay [2], less than 4 µg/mL; in assay [3], less than 4 µg/mL; in assay [4] it was less than 4 µg/mL; in assay [5] it was greater than 32 µg/mL; in assay [6], greater than 32 µg/mL.

With `CO[C@]1(C)C[C@@H](C)CN(C)[C@@H](CCCN2CC[C@@H](F)C2)COC(=O)C(C)(C)C(=O)[C@H](C)[C@H]1O[C@@H]1O[C@H](C)C[C@H](N(C)C)[C@H]1O` [Compound 108, (3S,6R,8R,9R,10R)-9-(((2S,3R,4S,6R)-4-(dimethylamino)-3-hydroxy-6-methyltetrahydro-2H-pyran-2-yl)oxy)-3-(3-((R)-3-fluoropyrrolidin-1-yl)propyl)-8-methoxy-4,6,8,10,12,12-hexamethyl-1-oxa-4-azacyclotridecane-11,13-dione], the MIC in assay [1] is 4 to 32 µg/mL (≈ 6.35 to 50.8 µM); in assay [2] it was less than 4 µg/mL; in assay [3], less than 4 µg/mL; in assay [4] it was less than 4 µg/mL; in assay [5], greater than 32 µg/mL; in assay [6], greater than 32 µg/mL.

Consider `CO[C@]1(C)C[C@@H](C)CN(C)[C@H](CC2=CCN(CC3CC3)CC2)COC(=O)C(C)(C)C(=O)[C@H](C)[C@H]1O[C@@H]1O[C@H](C)C[C@H](N(C)C)[C@H]1O` [Compound 148], for which the MIC was 4 to 32 µg/mL (≈ 6.15 to 49.2 µM) in assay [1]; less than 4 µg/mL in assay [2]; 4 to 32 µg/mL (≈ 6.15 to 49.2 µM) in assay [3]; 4 to 32 µg/mL (≈ 6.15 to 49.2 µM) in assay [4]; greater than 32 µg/mL in assay [5]; greater than 32 µg/mL in assay [6].

On to `C=C(C)C[C@]1(C)C(=O)OC[C@@H](CC2CCN(CCCCCCC)CC2)N(C)C[C@H](C)C[C@@](C)(OC)[C@H](O[C@@H]2O[C@H](C)C[C@H](N(C)C)[C@H]2O)[C@@H](C)C1=O` [Compound 175], for which the “MIC E. coli MP-4” value in assay [2] (CLSI broth dilution) is reported as “+++ (values less than or equal to 4 mg/L)”. Further, the “MIC K. pneumoniae MP-546” value in assay [3] (CLSI broth dilution) is “++ (values of greater than 4 mg/L and less than or equal to 32 mg/L)”. The “MIC K. pneumoniae MP-648” value in assay [4] (CLSI broth dilution) is reported as “+ (values greater than 32 mg/L)”. Also, the “MIC P aeruginosa MP-3” value in assay [5] (strain MP-3) is recorded as “+ (values greater than 32 mg/L)”. Moreover, in assay [6] (strain MP-15), the “MIC A. baumanii MP-15” value is on record as “+ (values greater than 32 mg/L)”.
